According to US7304058B2, “Carbamic acid esters of benzothiazoles” (Hoffmann-La Roche Inc., priority 2003, dated 2007):

Columns and labels:
[1] = biological target: T1, human adenosine A2A receptor (Homo sapiens, UniProt P29274); assay: [3H]-SCH-58261 binding assay, human adenosine A2A receptor; conditions: [3H]-SCH-58261 1 nM; membranes of CHO cells expressing the recombinant receptor; Ki by Cheng-Prussoff; read-out: hA2 (pKi) (converted)
T1 construct: expressed in transfected cells; host or cells: CHO cells, Semliki Forest virus expression system; membrane preparation
T1 sequence (P29274 whole entry): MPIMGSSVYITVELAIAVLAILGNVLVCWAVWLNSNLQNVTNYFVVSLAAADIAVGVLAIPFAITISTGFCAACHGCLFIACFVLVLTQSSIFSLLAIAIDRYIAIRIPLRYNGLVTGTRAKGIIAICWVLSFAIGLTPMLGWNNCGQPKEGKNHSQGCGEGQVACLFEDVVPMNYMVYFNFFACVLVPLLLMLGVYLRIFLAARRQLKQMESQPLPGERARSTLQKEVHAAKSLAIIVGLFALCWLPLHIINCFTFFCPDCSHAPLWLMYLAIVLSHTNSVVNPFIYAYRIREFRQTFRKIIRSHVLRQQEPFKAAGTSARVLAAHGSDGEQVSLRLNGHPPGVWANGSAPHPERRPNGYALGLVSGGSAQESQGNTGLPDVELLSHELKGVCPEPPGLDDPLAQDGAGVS
Description: Human Adenosine A2A Receptor
The human adenosine A2A receptor was recombinantly expressed in Chinese hamster ovary (CHO) cells using the semliki forest virus expression system. Cells were harvested, washed twice by centrifugation, homogenized and again washed by centrifugation. The final washed membrane pellet was suspended in a Tris (50 mM) buffer containing 120 mM NaCl, 5 mM KCl, 2 mM CaCl2 and 10 mM MgCl2 (pH 7.4) (buffer A). The [^3H]-SCH-58261 (Dionisotti et al., 1997, Br J Pharmacol 121, 353; 1 nM) binding assay was carried out in 96-well plates in the presence of 2.5 μg of membrane protein, 0.5 mg of Ysi-poly-1-lysine SPA beads and 0.1 U adenosine deaminase in a final volume of 200 μl of buffer A. Non-specific binding was defined using xanthine amine congener (XAC; 2 μM). Compounds were tested at 10 concentrations from 10 μM-0.3 nM. All assays were conducted in duplicate and repeated at least two times. Assay plates were incubated for 1 hour at room temperature before centrifugation and then bound ligand determined using a Packard Topcount scintillation counter. IC50 values were calculated using a non-linear curve fitting program and Ki values calculated using the Cheng-Prussoff equation.

## COc1ccc(N2CCOCC2)c2sc(NC(=O)OC3CCC(O)C3)nc12 (mixture of isomers) [Example 11, (cis/trans)-(4-Methoxy-7-morpholin-4-yl-benzothiazol-2-yl)-carbamic acid 3-hydroxy-cyclopentyl ester]
[1]
  Ki: 15.8 nM
other
  melting point: 188 to 189 °C

## COc1ccc(N2CCOCC2)c2sc(NC(=O)OC3CC4CC3CC4O)nc12 (racemic) [Example 9, (rac)-(exo,exo)-(4-Methoxy-7-morpholin-4-yl-benzothiazol-2-yl)-carbamic acid 5-hydroxy-bicyclo[2.2.1]hept-2-yl ester]
[1]
  Ki: 3.98 nM
other
  melting point: 193 to 194 °C

## COc1ccc(C2CCOCC2)c2sc(NC(=O)O[C@H]3CC[C@H](O)CC3)nc12 [Example 1, (trans)-[4-Methoxy-7-(tetrahydro-pyran-4-yl)-benzothiazol-2-yl]-carbamic acid 4-hydroxy-cyclohexyl ester]
[1]
  Ki: 2 nM
other
  melting point: 282 to 284 °C

## CCOC(=O)Nc1nc2c(OC)ccc(C3CCOCC3)c2s1 [Example 2, [4-Methoxy-7-(tetrahydro-pyran-4-yl)-benzothiazol-2-yl]-carbamic acid ethyl ester]
[1]
  Ki: 5.01 nM
other
  melting point: 170 to 174 °C

## COCCOC(=O)Nc1nc2c(OC)ccc(N3CCOCC3)c2s1 [Example 3, (4-Methoxy-7-morpholin-4-yl-benzothiazol-2-yl)-carbamic acid 2-methoxy-ethyl ester]
[1]
  Ki: 12.6 nM
other
  melting point: 149 to 152 °C

## COc1ccc(N2CCOCC2)c2sc(NC(=O)OCC(C)C)nc12 [Example 4, (4-Methoxy-7-morpholin-4-yl-benzothiazol-2-yl)-carbamic acid isobutyl ester]
[1]
  Ki: 25.1 nM
other
  melting point: 164 to 168 °C

## COc1ccc(N2CCOCC2)c2sc(NC(=O)OC3CCCCC3)nc12 [Example 5, (4-Methoxy-7-morpholin-4-yl-benzothiazol-2-yl)-carbamic acid cyclohexyl ester]
[1]
  Ki: 7.94 nM
other
  melting point: 177 to 179 °C

## COc1ccc(N2CCOCC2)c2sc(NC(=O)O[C@H]3CC[C@H](O)CC3)nc12 [Example 6, (tran)s-(4-Methoxy-7-morpholin-4-yl-benzothiazol-2-yl)-carbamic acid 4-hydroxy-cyclohexyl ester]
[1]
  Ki: 6.31 nM
other
  melting point: 176 to 179 °C

## COc1ccc(N2CCOCC2)c2sc(NC(=O)O[C@H]3CC[C@@H](O)CC3)nc12 [Example 7, (cis)-(4-Methoxy-7-morpholin-4-yl-benzothiazol-2-yl)-carbamic acid 4-hydroxy-cydohexyl ester]
[1]
  Ki: 10 nM
other
  melting point: 204 to 206 °C

## COc1ccc(N2CCOCC2)c2sc(NC(=O)OC3CCOCC3)nc12 [Example 8, (4-Methoxy-7-morpholin-4-yl-benzothiazol-2-yl)-carbamic acid tetrahydro-pyran-4-yl ester]
[1]
  Ki: 7.94 nM
other
  melting point: 187 to 188 °C

## COc1ccc(N2CCOCC2)c2sc(NC(=O)O[C@@H]3CCOC3)nc12 [Example 10, (R)-(4-Methoxy-7-morpholin-4-yl-benzothiazol-2-yl)-carbamic acid tetrahydro-furan-3-yl ester]
[1]
  Ki: 25.1 nM
other
  melting point: 198 to 200 °C

## COc1ccc(C2CCOCC2)c2sc(NC(=O)OCC3CCCO3)nc12 (centres unmarked) [Example 12, [4-Methoxy-7-(tetrahydro-pyran-4-yl)-benzothiazol-2-yl]-carbamic acid tetrahydro-furan-2-ylmethyl ester]
[1]
  Ki: 12.6 nM
other
  melting point: 175 to 180 °C

## COc1ccc(C2CCOCC2)c2sc(NC(=O)O[C@H]3CCOC3)nc12 [Example 13, [4-Methoxy-7-(tetrahydro-pyran-4-yl)-benzothiazol-2-yl]-carbamic acid (S)-(tetrahydro-furan-3-yl) ester]
[1]
  Ki: 3.98 nM
other
  melting point: 195 to 200 °C
